Tests used:
NOD and NZO mice = experiment: Implantation rate and embryonic/fetal resorption after tacrolimus; assay type: in vivo, mouse; settings: short-term administration
Description: Fifty four NOD mice at the prediabetic and early diabetic stages were carefully selected to match the criteria of being 2 standard deviation heavier in body weight than their age-matched normoglycemic control mice and having blood glucose value of >14.9 mM/1 during the glucose tolerance test. The selected mice were 9 weeks old and were treated with 0.1 mg/kg q2d of tacrolimus (Prograf (5 mg/ml), Astellas) subcutaneously administered in 0.2 ml saline for three weeks after which animals were mated to males of the same strain (See FIG. 1). Vehicle (0.2 ml saline, s.q.) treated hyperglycemic NOD female mice were allowed two weeks in diabetes before they were mated to males of the same strain. […]
Twenty NZO and DIO/B6 female mice were maintained on a high fat diet consisted of 60% kcal fat, 20% kcal protein and 20% kcal carbohydrate, with a total energy mass of 5.24 kcal/gm (D12492, Research Diets Inc.; Cedarlane Laboratories, Burlington, Ontario, Canada) starting at 7 weeks of age and maintained on the diet for a total of 12 weeks of study period during which their weekly body weight changes and non-fasting blood glucose values were recorded. […]

[1] = system: NZO mice fed a high fat diet; experiment: Implantation rate and resorption, comparison of macrolides; assay type: in vivo, mouse
Description: For the comparative evaluation of other macrolide drugs to tacrolimus, mice starting at 7 weeks of age were maintained on the high fat diet for a total of 13 weeks of study period. Mice were entered into the experiments when determined to be glucose intolerant as described above. Methods of drug administration and other experimental methods were as described above.
Peri-implantation (E4.5) and post-implantation (E6.5) pregnant and/or pseudopregnant (E4.5bid and E6.5bid) mouse uteri were prepared after mating respectively with fertile and/or vasectomized males as previously described (Herington et al. Endocrinol 2009 150: 4404-4413). The morning of vaginal plug detection was considered as gestational day 0.5 (E0.5 or Gd.0.5). An average number of twenty Concanavalin A(ConA)-coated sepharose beads (average size of 0.1 mm-diameter) (Sigma-Aldrich, Burlington, Ontario, Canada) was injected into the lumen of the left uterine horn of anesthetized animals between hours 13:00 and 16:00 on day 2.5 of pseudopregnancy according to the procedure described by Herington et al. (Endocrinol, 2009 150: 4404-4413). With the use of Ketamine/Xyalzine anesthesia and cardiac puncture, all animals were sacrificed at the age of 16-18 weeks between the morning hours 09:00-11:00. Pregnant and pseudopregnant mice were sacrificed in the morning of days 4.5 and 6.5 of their respective pregnancy. Blood samples were collected from all animals and were let stand for 1 hour at room temperature before isolation of the serum. Serum samples were stored at −80° C. until they were analyzed for their steroid hormones and lipid contents by appropriate laboratory procedures such as radio-immunoassay (RIA) all of which were conducted at the Department of Clinical Chemistry (Kingston General Hospital, Kingston, Ontario, Canada). Ovaries, oviducts and uteri were carefully dissected out of carcasses and were placed in ice-cold phosphate buffered saline (PBS)-containing petri dishes. Under a dissecting microscope, uteri were carefully isolated from their attached uterine tubes, trimmed of all mesenteric fat and were immediately weighed. The numbers of corpora lutea and implantation sites (viable and resorbed) were counted, respectively, from E4.5 and E6.5 pregnant mouse ovaries and uteri. For protein and RNA extraction, virgin uteri and segments of uterine horns containing inter-implantation sites of pregnant and pseudopregnant uteri were transected and snapped frozen in liquid nitrogen.
Examination of external morphological features of uteri of pregnant mice, including counts of implantation sites and photography was performed using a computerized dissecting microscope (Leica Diagnostic Instruments, USA) and the image acquisition and analytic software (SPOT 2.2.0). Percentage of peri-implantation embryo loss was calculated as described by Bindali and Kaliwal (Ind. Health, 2002 40:191-197), using the formula: % Preimplantation loss=[Total number of corpora lutea−Total number of implantation]/Total number of corpora lutea. Immunohistochemical localization and assessment of microscopic morphological features of implantation and inter-implantation sites in normoglycemic and diabetic NOD mice were performed on methacarn (60% methanol, 30% chloroform and 10% acetic acid)-fixed specimens. […]

Structure (SMILES): C=CC[C@@H]1/C=C(\C)C[C@H](C)C[C@H](OC)[C@H]2O[C@@](O)(C(=O)C(=O)N3CCCC[C@H]3C(=O)O[C@H](/C(C)=C/[C@@H]3CC[C@@H](O)[C@H](OC)C3)[C@H](C)[C@@H](O)CC1=O)[C@H](C)C[C@@H]2OC [tacrolimus]
- rates of embryonic and fetal resorption (NOD and NZO mice): reduced rates of embryonic and fetal resorption
- implantation rate (NOD and NZO mice; pregnancy days 4.5 and 6.5): enhanced implantation rate
- fertility-enhancing effect compared with the other macrolides ([1]; NZO mice, high fat diet): greater comparative effects
- embryonic and fetal absorption rate ([1]; same treatments, vs vehicle, p<0.05): significantly reduced embryonic and fetal absorption rate
- implantation rate ([1]; tacrolimus 0.05 and 0.1 mg/kg, pimecrolimus 0.1 mg/kg, sirolimus 0.1 mg/kg s.c. every other day for three weeks, vs vehicle): significantly improved implantation rate (p<0.05)
